Literature values as cited in patent US10399946B2, “Solid forms of an S-Nitrosoglutathione reductase inhibitor” (Alpine Immune Sciences, Inc., priority 2015, dated 2019).

How the values were obtained:
[1] = target: S-nitrosoglutathione reductase (GSNOR) (Homo sapiens, UniProt P11766); conditions: variety of assays and therapeutic models
[2] = described in WO2012/048181, US 62/061,557, 62/093,712, 62/138,792, 62/209,724, WO 2016/057811

Sequence of S-nitrosoglutathione reductase (GSNOR) (P11766 whole entry): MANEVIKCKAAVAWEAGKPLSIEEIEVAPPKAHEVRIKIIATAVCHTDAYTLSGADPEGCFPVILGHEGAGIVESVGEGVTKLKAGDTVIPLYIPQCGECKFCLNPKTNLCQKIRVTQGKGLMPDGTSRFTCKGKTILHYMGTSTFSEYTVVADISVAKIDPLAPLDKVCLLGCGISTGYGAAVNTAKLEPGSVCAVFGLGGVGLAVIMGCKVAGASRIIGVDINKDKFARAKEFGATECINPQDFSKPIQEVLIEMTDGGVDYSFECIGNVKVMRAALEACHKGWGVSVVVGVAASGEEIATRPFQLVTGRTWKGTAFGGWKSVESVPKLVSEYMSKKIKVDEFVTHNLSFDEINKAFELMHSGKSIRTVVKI

In the case of `O=C(O)c1ccc(-c2ccc3cc(O)ccc3n2)c(Cl)c1` [Compound 1, 3-chloro-4-(6-hydroxyquinolin-2-yl)benzoic acid], the “inhibition of S-nitrosoglutathione reductase (GSNOR)” value [1] is listed as “selective and reversible inhibition” and the “efficacy in asthma, COPD, cystic fibrosis, and IBD models” value [2] is listed as “demonstrates efficacy”.
